Values quoted from earlier work in US20100317664A1, “METHODS OF AFFECTING GASTROINTESTINAL TRANSIT AND GASTRIC EMPTYING, AND COMPOUNDS USEFUL THEREIN” (priority 2007, published 2010).

How the values were obtained:
[1] = test system: rats; settings: parenteral injection to rats
[2] = test system: humans

**Q.** Which results are given for `N[C@@H](Cc1ccc(Cl)cc1)C(=O)O` (racemic) [p-chlorophenylalanine]?
**A.** gastrointestinal motility [1]: decreased their gastrointestinal motility; adverse psychological effects ([2]; in vivo): adverse psychological effects, such as dizziness, nausea and uneasiness; entry into the central nervous system ([2]; in vivo): readily gets into the central nervous system; constipation ([2]; oral administration, high doses (3000 mg/day), humans): causes constipation
